Consider 15 compounds from PubChem BioAssay (NCI).

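Exposure lasted 48 hours, with cells grown in 96-well plates and compounds tested at five concentrations. The concentration for 50% growth inhibition is given as GI50. TGI marks complete inhibition of growth.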 Where only a bound is given, the exact number is not on record here.

Some test systems named below: HCT-15 colon; KM12 colon; MDA-MB-231 breast; OVCAR-5 ovarian; RXF 393 renal; SF-268 CNS; SK-OV-3 ovarian; U251 CNS; M14 melanoma; UO-31 renal.
Test in all cases: NCI anticancer screen, dose series, 48 h

Regarding `CC1C/C(=C\c2ccc(O)c(O)c2)C(=O)/C(=C/c2ccc(O)c(O)c2)C1` (stereo not drawn), the TGI came out at 25.5 µM in the assay on HCT-15 colon; 20.9 µM in the assay with KM12 colon; 43.4 µM in the assay with MDA-MB-231 breast; 32.8 µM in the assay with OVCAR-5 ovarian; 14.4 µM in the assay on RXF 393 renal; 32.1 µM with SF-268 CNS. The TGI in the assay on SK-OV-3 ovarian turned out to be 53.1 µM; in the assay with U251 CNS, 18.1 µM.
Consider `COc1ccc(C2=C(N)c3cc(OC)ccc3C2=O)cc1`, for which the TGI with HCT-15 colon, with KM12 colon, in the assay with M14 melanoma, with MDA-MB-231 breast, in the assay on OVCAR-5 ovarian and with SF-268 CNS was > 100 µM in each case. Further, the TGI with SK-OV-3 ovarian and in the assay on U251 CNS was > 100 µM in each case.
Consider H-KIFKKFKTIIKKVWRIFGRF-NH2, for which the GI50 in the assay on M14 melanoma was 2.37 µM; in the assay with OVCAR-5 ovarian it was 2.1 µM; with RXF 393 renal it was 2.09 µM; with SF-268 CNS it was 2.08 µM; in the assay on SK-OV-3 ovarian, 3.17 µM. Moreover, the TGI with M14 melanoma is > 100 µM; in the assay with OVCAR-5 ovarian it was 4.28 µM; in the assay with RXF 393 renal, 5.19 µM; with SF-268 CNS, 5.45 µM; with SK-OV-3 ovarian it was 7.39 µM.
As for `COc1ccc(OC)c([N+](=O)[O-])c1-c1nc2sc(C)cn2c1/C=N/N=C(N)N`, the TGI in the assay with HCT-15 colon was > 100 µM; with KM12 colon, 72.9 µM; in the assay with M14 melanoma it was > 100 µM; in the assay on MDA-MB-231 breast, 84.4 µM; with OVCAR-5 ovarian it was > 100 µM; in the assay with RXF 393 renal it was 76.1 µM. Moreover, the TGI in the assay with SF-268 CNS, in the assay on U251 CNS and with UO-31 renal was > 100 µM throughout.
Consider `CCOC(=O)N1c2c(c3ccccc3n2C(=O)OCC)C(=O)C(OC)N1C(=O)OCC` (stereo not drawn), for which the TGI with HCT-15 colon is 79 µM; in the assay on KM12 colon, 38.9 µM; with M14 melanoma, > 100 µM; in the assay on MDA-MB-231 breast it was 83.6 µM; with OVCAR-5 ovarian it was > 100 µM; with SK-OV-3 ovarian it was > 100 µM. Further, the results for the TGI with U251 CNS and in the assay on UO-31 renal were 76.5 µM and > 100 µM, respectively.
Regarding `CCN(CC)CCC1(C(=O)OC)SCCc2ccc(C)cc21` (stereo not drawn), the TGI in the assay on HCT-15 colon, in the assay on KM12 colon, in the assay on M14 melanoma, with OVCAR-5 ovarian, in the assay with RXF 393 renal and in the assay with SF-268 CNS was > 100 µM each time. The TGI in the assay on SK-OV-3 ovarian, with U251 CNS and in the assay on UO-31 renal was > 100 µM in each case.
Consider `CN(C)CC(C)(C)C(=O)/C=C/c1ccccc1`, for which the TGI in the assay with HCT-15 colon came out at 26.9 µM; in the assay with KM12 colon it was 28.5 µM; in the assay on M14 melanoma, 26.7 µM; with RXF 393 renal, 24.5 µM; with U251 CNS it was 30.5 µM; in the assay on UO-31 renal, 23 µM.
As to `NC(=O)c1nnc2c(F)cccc2c1N`, the TGI with HCT-15 colon, in the assay with KM12 colon, in the assay with M14 melanoma, in the assay on MDA-MB-231 breast, in the assay with OVCAR-5 ovarian and in the assay with SF-268 CNS was > 100 µM throughout. The TGI with SK-OV-3 ovarian, with U251 CNS and with UO-31 renal was > 100 µM in each case.
Turning to `S=C1NNC(=S)NN1`, the TGI in the assay with HCT-15 colon, with KM12 colon, with M14 melanoma, in the assay on MDA-MB-231 breast, with SF-268 CNS and in the assay with SK-OV-3 ovarian was > 1 µM in each case. Further, the TGI in the assay on U251 CNS and in the assay with UO-31 renal was > 1 µM each time.
In the case of `NS(=O)(=O)c1ccc(NS(=O)(=O)c2ccc(NC(=O)N(c3ccccc3)c3ccccc3)cc2)cc1`, the TGI was > 100 µM in the assay on HCT-15 colon; > 100 µM in the assay with KM12 colon; > 100 µM with M14 melanoma; > 100 µM in the assay on MDA-MB-231 breast; > 100 µM in the assay on OVCAR-5 ovarian; 80.9 µM with RXF 393 renal. Besides, the TGI with SF-268 CNS, with U251 CNS and with UO-31 renal was > 100 µM throughout.
On to `CN1CCN(C2CC(=O)c3c(Cl)sc(Cl)c32)CC1` (stereo not drawn), for which the TGI was > 31.6 µM with HCT-15 colon; 30.9 µM in the assay on KM12 colon; 20.7 µM in the assay with M14 melanoma; 48 µM with MDA-MB-231 breast; > 60.8 µM in the assay with OVCAR-5 ovarian; > 31.1 µM in the assay with SF-268 CNS. The values for the TGI with SK-OV-3 ovarian, in the assay with U251 CNS and with UO-31 renal were > 90 µM, 36 µM and 17 µM, respectively.
For the compound `COc1ccc(-c2nc3ncccn3c2-c2ccc(S(C)(=O)=O)cc2)cc1`, the TGI in the assay on HCT-15 colon, in the assay on KM12 colon, in the assay with M14 melanoma, in the assay with MDA-MB-231 breast, in the assay on OVCAR-5 ovarian and with SF-268 CNS was > 100 µM in each case. Moreover, the TGI in the assay on SK-OV-3 ovarian, in the assay on U251 CNS and in the assay with UO-31 renal was > 100 µM each time.
Turning to `CC1[C@@H]2C[C@@H]3O[C@@]34[C@H]3CCC5Cc6nc7c(nc6C[C@@]5(C)C3(O)CC(=O)[C@@]24CO[C@]12OC(C)(C)CC2O)CC1CC[C@@H]2C3=C[C@H]4O[C@@]5(O[C@@](C)(CO)C[C@@H]5O)C(C)[C@@]4(O)[C@]3(C)[C@@H](O)CC2[C@]1(C)C7` (stereo partly drawn), the TGI turned out to be 2.66 µM in the assay on HCT-15 colon; 0.893 µM with KM12 colon; 0.218 µM in the assay with OVCAR-5 ovarian; 0.0296 µM in the assay on RXF 393 renal; 0.683 µM in the assay with SF-268 CNS; 0.231 µM with SK-OV-3 ovarian. The figures for the TGI with U251 CNS and with UO-31 renal were 0.332 µM and 0.755 µM, respectively.
Consider `CC(=O)c1c2c(cc3c1CCC3)CCC2`, for which the TGI in the assay on HCT-15 colon, in the assay on KM12 colon, in the assay on M14 melanoma, in the assay with MDA-MB-231 breast, with OVCAR-5 ovarian and in the assay with SF-268 CNS was > 100 µM throughout. Besides, the TGI in the assay on SK-OV-3 ovarian, in the assay on U251 CNS and in the assay on UO-31 renal was > 100 µM in each case.
Turning to `C[S+](C)C1(c2ccccc2)C(=O)c2ccccc2C1=O`, the TGI in the assay with HCT-15 colon was > 100 µM; with KM12 colon, > 100 µM; with M14 melanoma it was > 100 µM; in the assay on OVCAR-5 ovarian, > 89.7 µM; in the assay on RXF 393 renal, > 100 µM; in the assay with SF-268 CNS, > 100 µM. Moreover, the TGI is > 100 µM in the assay with SK-OV-3 ovarian, > 66.3 µM with U251 CNS and > 56.5 µM with UO-31 renal.
